In patent US9650361B2, “N-(pyridin-2-yl)pyrimidin-4-amine derivatives containing a sulfoximine group” (BAYER PHARAM AKTIENGESELLSCHAFT, priority 2012, dated 2017):
Read-outs that look alike come from different tables or passages of the source.

Columns and labels:
[1] = target: T1, CDK9/CycT1 (Homo sapiens, UniProt P50750); assay: CDK9/CycT1 high ATP kinase assay (Method 1b); format: biochemical; conditions: 2 mM ATP
T1 construct: Recombinant full-length His-tagged human CDK9 and CycT1; His; purchased Invitrogen PV4131; host or cells: insect cells
Protocol: 1b. CDK9/CycT1 High ATP Kinase Assay
CDK9/CycT1-inhibitory activity of compounds of the present invention at a high ATP concentration after preincubation of enzyme and test compounds was quantified employing the CDK9/CycT1 TR-FRET assay as described in the following paragraphs.
Recombinant full-length His-tagged human CDK9 and CycT1, expressed in insect cells and purified by Ni-NTA affinity chromatography, were purchase from Invitrogen (Cat. No PV4131). As substrate for the kinase reaction biotinylated peptide biotin-Ttds-YISPLKSPYKISEG (C-terminus in amid form) was used which can be purchased e.g. form the company JERINI peptide technologies (Berlin, Germany).
For the assay 50 nl of a 100 fold concentrated solution of the test compound in DMSO was pipetted into a black low volume 384 well microtiter plate (Greiner Bio-One, Frickenhausen, Germany), 2 μl of a solution of CDK9/CycT1 in aqueous assay buffer [50 mM Tris/HCl pH 8.0, 10 mM MgCl2, 1.0 mM dithiothreitol, 0.1 mM sodium ortho-vanadate, 0.01% (v/v) Nonidet-P40 (Sigma)] were added and the mixture was incubated for 15 min at 22° C. to allow pre-binding of the test compounds to the enzyme before the start of the kinase reaction. Then the kinase reaction was started by the addition of 3 μl of a solution of adenosine-tri-phosphate (ATP, 3.3 mM=>final conc. in the 5 μl assay volume is 2 mM) and substrate (1.67 μM=>final conc. in the 5 μl assay volume is 1 μM) in assay buffer and the resulting mixture was incubated for a reaction time of 25 min at 22° C. The concentration of CDK9/CycT1 was adjusted depending of the activity of the enzyme lot and was chosen appropriate to have the assay in the linear range, typical concentrations were in the range of 0.5 μg/ml. The reaction was stopped by the addition of 5 μl of a solution of TR-FRET detection reagents (0.2 μM streptavidine-XL665 [Cisbio Bioassays, Codolet, France] and 1 nM anti-RB(pSer807/pSer811)-antibody from BD Pharmingen [#558389] and 1.2 nM LANCE EU-W1024 labeled anti-mouse IgG antibody [Perkin-Elmer, product no. AD0077]) in an aqueous EDTA-solution (100 mM EDTA, 0.2% (w/v) bovine serum albumin in 100 mM HEPES/NaOH pH 7.0).
The resulting mixture was incubated 1 h at 22° C. to allow the formation of complex between the phosphorylated biotinylated peptide and the detection reagents. Subsequently the amount of phosphorylated substrate was evaluated by measurement of the resonance energy transfer from the Eu-chelate to the streptavidine-XL. Therefore, the fluorescence emissions at 620 nm and 665 nm after excitation at 350 nm was measured in a HTRF reader, e.g. a Rubystar (BMG Labtechnologies, Offenburg, Germany) or a Viewlux (Perkin-Elmer). The ratio of the emissions at 665 nm and at […] was taken as the measure for the amount of phosphorylated substrate. The data were normalised (enzyme reaction without inhibitor=0% inhibition, all other assay components but no enzyme=100% inhibition).

[2] = test system: HeLa-MaTu-ADR cells; assay: Proliferation assay, HeLa-MaTu-ADR (Method 3); format: cell-based, human; conditions: 4 days, crystal violet, read-out: Inhibition of HeLa-MaTu-ADR cell proliferation IC50
Protocol: (§1) Cultivated tumour cells (HeLa, human cervical tumour cells, ATCC CCL-2; NCI-H460, human non-small cell lung carcinoma cells, ATCC HTB-177; A2780, human ovarian carcinoma cells, ECACC #93112519; DU 145, hormone-independent human prostate carcinoma cells, ATCC HTB-81; HeLa-MaTu-ADR, multidrug-resistant human cervical carcinoma cells, EPO-GmbH Berlin; Caco-2, human colorectal carcinoma cells, ATCC HTB-37; B16F10, mouse melanoma cells, ATCC CRL-6475) were plated at a density of 5,000 cells/well (DU145, HeLa-MaTu-ADR), 3,000 cells/well (NCI-H460, HeLa), 2,500 cells/well (A2780), 1,500 cells/well (Caco-2), or 1,000 cells/well (B16F10) in a 96-well multititer plate in 200 μL of their respective growth medium supplemented 10% fetal calf serum. After 24 hours, the cells of one plate (zero-point plate) were stained with crystal violet (see below), while the medium of the other plates was replaced by fresh culture medium (200 μl), to which the test substances were added in various concentrations (0 μM, as well as in the range of 0.001-10 μM; the final concentration of the solvent dimethyl sulfoxide was 0.5%). The cells were incubated for 4 days in the presence of test substances. Cell proliferation was determined by staining the cells with crystal violet: the cells were fixed by adding 20 μl/measuring point of an 11% glutaric aldehyde solution for 15 minutes at room temperature. After three washing cycles of the fixed cells with water, the plates were dried at room temperature. The cells were stained by adding 100 μl/measuring point of a 0.1% crystal violet solution (pH 3.0). After three washing cycles of the stained cells with water, the plates were dried at room temperature. The dye was dissolved by adding 100 μl/measuring point of a 10% acetic acid solution. The extinction was determined by photometry at a wavelength of 595 nm. The change of cell number, in percent, was calculated by normalization of the measured values to the extinction values of the zero-point plate (=0%) and the extinction of the untreated (0 μm) cells (=100%). The IC50 values (inhibitory concentration at 50% of maximal effect) were determined by means of a 4 parameter fit.

[3] = test system: NCI-H460 cells; assay: Proliferation assay, NCI-H460 (Method 3); format: cell-based, human; conditions: 4 days, crystal violet, read-out: Inhibition of NCI-H460 cell proliferation IC50
Protocol: as §1

[4] = test system: MOLM-13 cells; assay: Proliferation assay, MOLM-13 (Method 3); format: cell-based, human; conditions: 72-hour exposure, Cell Titre-Glo, read-out: Inhibition of MOLM 13 cell proliferation IC50
Protocol: Non-adherent MOLM-13 human acute myeloid leukemia cells (DSMZ ACC 554) were seeded at a density of 5,000 cells/well in a 96-well multititer plate in 100 μL of growth medium supplemented 10% fetal calf serum. After 24 hours, cell viability of one plate (zero-point plate) was determined with the Cell Titre-Glo Luminescent Cell Viability Assay (Promega), while 50 μl of test compound containing medium was added to the wells of the other plates (final concentrations in the range of 0.001-10 μM and DMSO controls; the final concentration of the solvent dimethyl sulfoxide was 0.5%). Cell viability was assessed after 72-hour exposure with the Cell Titre-Glo Luminescent Cell Viability Assay (Promega). IC50 values (inhibitory concentration at 50% of maximal effect) were determined by means of a 4 parameter fit on measurement data which were normalized to vehicle (DMSO) treated cells (=100%) and measurement readings taken immediately before compound exposure (=0%).

T1 sequence (P50750 whole entry): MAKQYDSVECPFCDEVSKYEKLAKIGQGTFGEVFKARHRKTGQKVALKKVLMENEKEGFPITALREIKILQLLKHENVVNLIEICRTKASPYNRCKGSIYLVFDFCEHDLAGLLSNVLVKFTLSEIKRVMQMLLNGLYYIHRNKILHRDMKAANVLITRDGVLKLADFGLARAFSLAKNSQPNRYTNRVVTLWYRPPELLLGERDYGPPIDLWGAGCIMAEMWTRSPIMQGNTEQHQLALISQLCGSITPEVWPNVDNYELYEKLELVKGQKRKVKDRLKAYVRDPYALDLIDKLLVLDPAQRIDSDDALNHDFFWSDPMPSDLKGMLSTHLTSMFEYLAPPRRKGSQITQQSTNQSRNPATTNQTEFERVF
T1 sequence (O60563 whole entry partner): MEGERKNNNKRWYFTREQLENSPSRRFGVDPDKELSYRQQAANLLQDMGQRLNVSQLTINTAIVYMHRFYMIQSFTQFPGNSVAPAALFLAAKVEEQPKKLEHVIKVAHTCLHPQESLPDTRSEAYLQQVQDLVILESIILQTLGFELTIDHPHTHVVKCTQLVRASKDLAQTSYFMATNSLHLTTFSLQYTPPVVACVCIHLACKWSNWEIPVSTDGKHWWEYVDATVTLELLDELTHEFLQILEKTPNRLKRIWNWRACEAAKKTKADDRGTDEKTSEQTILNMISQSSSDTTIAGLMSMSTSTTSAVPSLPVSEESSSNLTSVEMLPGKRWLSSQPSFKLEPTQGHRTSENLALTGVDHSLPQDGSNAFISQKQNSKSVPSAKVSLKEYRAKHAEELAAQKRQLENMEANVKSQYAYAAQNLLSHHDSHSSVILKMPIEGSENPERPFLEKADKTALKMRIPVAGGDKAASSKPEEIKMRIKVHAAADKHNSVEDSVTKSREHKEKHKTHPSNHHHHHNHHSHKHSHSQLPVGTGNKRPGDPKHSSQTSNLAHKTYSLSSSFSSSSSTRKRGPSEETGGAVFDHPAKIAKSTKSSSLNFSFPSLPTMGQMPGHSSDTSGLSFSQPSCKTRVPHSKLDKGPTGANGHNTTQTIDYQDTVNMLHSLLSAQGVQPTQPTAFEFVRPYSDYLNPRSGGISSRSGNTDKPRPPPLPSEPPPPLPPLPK

| IC50 [1] [µM] | IC50 ([2]; Homo sapiens, 96 h) [µM] | IC50 ([3]; Homo sapiens, NCI-H460, 96 h) [µM] | IC50 ([4]; Homo sapiens, MOLM-13, 72 h) [µM] | IC50 [4] [µM] | IC50 [2] [µM] | IC50 [3] [µM] | Compound |
| --- | --- | --- | --- | --- | --- | --- | --- |
| 0.049 | 0.335 | 0.638 |  |  |  |  | COc1cc(F)ccc1-c1cc(Nc2cc(CS(C)(=N)=O)ccn2)ncn1 (racemic) [Example 1, (rac)-6-(4-Fluoro-2-methoxyphenyl)-N-{4-[(S-methylsulfonimidoyl)methyl]pyridin-2-yl}pyrimidin-4-amine] |
| 0.011 | 0.097 | 0.372 | 0.047 |  |  |  | COc1cc(F)ccc1-c1cc(Nc2cc(CS(C)(=N)=O)cc(Cl)n2)ncn1 (racemic) [Example 4, (rac)-N-{6-Chloro-4-[(S-methylsulfonimidoyl)methyl]pyridin-2-yl}-6-(4-fluoro-2-methoxyphenyl)pyrimidin-4-amine] |
| 0.004 | 0.217 | 0.375 | 0.053 |  |  |  | COc1cc(F)ccc1-c1cc(Nc2cc(CS(C)(=N)=O)cc(C)n2)ncn1 (racemic) [Example 7, (rac)-6-(4-Fluoro-2-methoxyphenyl)-N-{6-methyl-4-[(S-methylsulfonimidoyl)methyl]pyridin-2-yl}pyrimidin-4-amine] |
| 0.003 | 0.104 | 0.135 | 0.032 |  |  |  | COc1cc(F)ccc1-c1cc(Nc2cc(CS(C)(=N)=O)cc(C(F)(F)F)n2)ncn1 (racemic) [Example 10, (rac)-6-(4-Fluoro-2-methoxyphenyl)-N-{4-[(S-methylsulfonimidoyl)methyl]-6-(trifluoromethyl)pyridin-2-yl}pyrimidin-4-amine] |
| 0.03 |  |  |  | 0.189 |  |  | COc1cc(F)ccc1-c1cc(Nc2cc(CS(C)(=N)=O)ccn2)ncn1 (single isomer, unassigned) [Example 2, 6-(4-Fluoro-2-methoxyphenyl)-N-{4-[(S-methylsulfonimidoyl)methyl]pyridin-2-yl}pyrimidin-4-amine] |
| 0.01 |  |  |  | 0.08 |  |  | COc1cc(F)ccc1-c1cc(Nc2cc(CS(C)(=N)=O)ccn2)ncn1 (single isomer, unassigned) [Example 3, 6-(4-Fluoro-2-methoxyphenyl)-N-{4-[(S-methylsulfonimidoyl)methyl]pyridin-2-yl}pyrimidin-4-amine] |
| 0.009 | 0.109 | 0.185 | 0.033 |  |  |  | COc1cc(F)ccc1-c1cc(Nc2cc(CS(C)(=N)=O)cc(Cl)n2)ncn1 (single isomer, unassigned) [Example 5, N-{6-Chloro-4-[(S-methylsulfonimidoyl)methyl]pyridin-2-yl}-6-(4-fluoro-2-methoxyphenyl)pyrimidin-4-amine] |
| 0.005 |  |  |  | 0.044 | 0.111 | 0.192 | COc1cc(F)ccc1-c1cc(Nc2cc(CS(C)(=N)=O)cc(Cl)n2)ncn1 (single isomer, unassigned) [Example 6, N-{6-Chloro-4-[(S-methylsulfonimidoyl)methyl]pyridin-2-yl}-6-(4-fluoro-2-methoxyphenyl)pyrimidin-4-amine] |
| 0.006 | 0.112 | 0.319 | 0.064 |  |  |  | COc1cc(F)ccc1-c1cc(Nc2cc(CS(C)(=N)=O)cc(C)n2)ncn1 (single isomer, unassigned) [Example 8, 6-(4-Fluoro-2-methoxyphenyl)-N-{6-methyl-4-[(S-methylsulfonimidoyl)methyl]pyridin-2-yl}pyrimidin-4-amine] |
| 0.002 |  |  |  | 0.043 | 0.178 | 0.193 | COc1cc(F)ccc1-c1cc(Nc2cc(CS(C)(=N)=O)cc(C)n2)ncn1 (single isomer, unassigned) [Example 9, 6-(4-Fluoro-2-methoxyphenyl)-N-{6-methyl-4-[(S-methylsulfonimidoyl)methyl]pyridin-2-yl}pyrimidin-4-amine] |
